According to PubChem BioAssay (NCI):
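Step 1: Grow cells in 96-well plates. Step 2: Expose to compound for 48 hours at 5 concentrations. Step 3: Interpolate endpoints linearly; if unreached, use highest concentration. The concentration for 50% growth inhibition is given as GI50. TGI marks complete inhibition of growth.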

Assays:
Assay in all cases: growth of human tumour cells (NCI), 48 h
HCT-15 colon = tested on: HCT-15 colon
HL-60(TB) leukemia = tested on: HL-60(TB) leukemia
HOP-62 NSCLC = tested on: HOP-62 NSCLC
HT29 colon = tested on: HT29 colon
LOX IMVI melanoma = tested on: LOX IMVI melanoma
NCI-H226 lung = tested on: NCI-H226 lung
OVCAR-8 ovarian = tested on: OVCAR-8 ovarian
RXF 393 renal = tested on: RXF 393 renal
SF-295 CNS = tested on: SF-295 CNS
TK-10 renal = tested on: TK-10 renal

| SMILES | GI50 (HCT-15 colon) [µM] | TGI (HCT-15 colon) [µM] | GI50 (HL-60(TB) leukemia) [µM] | TGI (HL-60(TB) leukemia) [µM] | GI50 (HOP-62 NSCLC) [µM] | TGI (HOP-62 NSCLC) [µM] | GI50 (HT29 colon) [µM] | TGI (HT29 colon) [µM] | GI50 (LOX IMVI melanoma) [µM] | TGI (LOX IMVI melanoma) [µM] | GI50 (NCI-H226 lung) [µM] | TGI (NCI-H226 lung) [µM] | GI50 (OVCAR-8 ovarian) [µM] | TGI (OVCAR-8 ovarian) [µM] | GI50 (RXF 393 renal) [µM] | TGI (RXF 393 renal) [µM] | GI50 (SF-295 CNS) [µM] | TGI (SF-295 CNS) [µM] | GI50 (TK-10 renal) [µM] | TGI (TK-10 renal) [µM] |
| --- | --- | --- | --- | --- | --- | --- | --- | --- | --- | --- | --- | --- | --- | --- | --- | --- | --- | --- | --- | --- |
| CN(C)C(=O)O[C@H]1CN[C@H](C#Cc2cc3ncnc(Nc4ccc(OCc5cccc(F)c5)c(Cl)c4)c3s2)C1 | 14.2 | > 25 | 5.22 | 15 | > 23.4 | > 25 | > 23 | > 25 | > 23.2 | > 25 | 5.49 | 19.2 | 7.58 | > 25 | 5.48 | > 25 | > 20 | > 25 | 0.765 | > 17.4 |
| c1c[nH]c(CN2CCOCC2)n1 | – | > 100 | – | > 100 | – | > 100 | – | > 100 | – | > 100 | – | > 100 | – | > 100 | – | > 100 | – | > 100 | – | > 100 |
| O=c1c2cc(Br)ccc2nc(CCl)n1-c1ccc(O)c([N+](=O)[O-])c1 | – | 41.2 | – | 49.5 | – | 36.1 | – | 68.2 | – | 36.2 | – | 29.3 | – | 42.2 | – | 25.7 | – | 31.5 | – | 32.8 |
| O=C(Nc1ccc(Cl)c(Cl)c1)NS(=O)(=O)c1cnccc1Oc1ccc(F)cc1 | 3.32 | > 100 | 2.12 | 7.19 | 6.14 | 51.2 | 3.63 | > 100 | 3.24 | 53.1 | 9.77 | > 100 | 4.82 | > 100 | 3.8 | > 100 | 1.65 | 4.8 | 3.69 | 21.6 |
| Cc1ccc(-c2nc3nc(-c4ccc(F)cc4)nc(N4CCCNCC4)c3o2)cc1 | 1.06 | 2.42 | 0.211 | 0.46 | 1.74 | 3.51 | – | – | 1.18 | 2.55 | 1.96 | 4.05 | – | – | 1.59 | 3.11 | 1.82 | 3.35 | 1.66 | 3.09 |
| CN(C)CCNC(=O)Cn1ccc(=O)c2c([N+](=O)[O-])cccc21 | – | > 100 | – | > 100 | – | > 100 | – | > 100 | – | > 100 | – | > 100 | – | > 100 | – | > 100 | – | > 100 | – | > 100 |
| Cc1cc(I)cc(CN(C)CCCN2CCCC2)c1O | 19.1 | 47.5 | 13.4 | 31.3 | 16.4 | 34.8 | 9.52 | 24.4 | 15 | 30.6 | 30.7 | > 100 | 45.3 | > 100 | 16.3 | 41 | 13.7 | 28.4 | 17 | 36 |
| Nc1ncnc2c1ncn2CC(O)CO (stereo not drawn) | – | > 100 | – | > 100 | – | – | – | > 100 | – | > 100 | – | > 100 | – | > 100 | – | > 100 | – | > 100 | – | > 100 |
| CCCCN(CCCC)C(=O)/C(CC(=O)c1cccc2ccccc12)=N\NC(=O)c1cc2ccccc2cc1O | – | – | – | 16.5 | – | 39.9 | – | 57.7 | – | 35.9 | – | 44.7 | – | > 100 | – | 63 | – | 92.7 | – | > 100 |
| CC(=O)N1CCC2(c3ccccc3N(C(C)=O)C2c2ccc(O)cc2)C1C(=O)O (stereo not drawn) | – | – | – | > 100 | – | > 100 | – | > 100 | – | > 100 | – | > 100 | – | > 100 | – | > 100 | – | > 100 | – | > 100 |
| CC(C)(C)OC(=O)NCCCCCCCn1c2c(c3ccccc3c1=O)C(=O)c1ccccc1-2 | 41.7 | > 100 | 16.4 | 40.5 | – | – | 37.6 | > 100 | 65.2 | > 100 | 31.3 | 77.8 | 21.5 | > 100 | 16.2 | 43.5 | 37.4 | > 100 | 38.3 | > 100 |
| CCOC(=O)c1cc2c3c(c(O)c(OC)c2s1)N(C(=O)c1cc2c4c(c(O)c(OC)c2s1)N(C(C)=O)CC4)CC3 | – | – | – | > 100 | – | > 100 | – | > 100 | – | > 100 | – | > 100 | – | > 100 | – | > 100 | – | > 100 | – | > 100 |
| CC(C)(C)C(=O)[CH-]C(=O)C(C)(C)C.CC(C)(C)C(=O)[CH-]C(=O)C(C)(C)C.CN(C)c1ccc([O-])cc1.CN(C)c1ccc([O-])cc1.[Ti+4] | > 100 | > 100 | > 100 | > 100 | > 100 | > 100 | > 100 | > 100 | > 100 | > 100 | > 100 | > 100 | > 100 | > 100 | 14.4 | > 100 | > 100 | > 100 | – | – |
